Measured values published in article PMC6696238, “Novel Benzothiazole-Based Ureas as 17β-HSD10 Inhibitors, A Potential Alzheimer’s Disease Treatment” (Molecules, 2019).

Columns and labels:
[1] = biological target: T1, 17β-HSD10 (Homo sapiens, UniProt Q99714); test: orthogonal counter screen: small molecule aggregation (Triton X-100); type: biochemical; design: made in house; settings: aggregation or redox cycling counter screens
T1 sequence (Q99714 1-261): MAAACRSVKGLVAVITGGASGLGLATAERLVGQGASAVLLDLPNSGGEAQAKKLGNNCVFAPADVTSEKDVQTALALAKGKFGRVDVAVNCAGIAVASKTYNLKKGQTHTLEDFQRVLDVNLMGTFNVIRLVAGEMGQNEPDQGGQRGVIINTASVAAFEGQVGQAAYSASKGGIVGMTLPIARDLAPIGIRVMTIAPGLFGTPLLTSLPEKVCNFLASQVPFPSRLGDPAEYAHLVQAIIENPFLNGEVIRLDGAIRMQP
Excerpt: During our enzymatic assay development, it was noted that the assay was susceptible to false positives through redox cycling and aggregation mechanism, therefore, two orthogonal counter screens have been implemented to validate the primary screen results. The addition of the detergent Triton X-100 to the assay buffer prevents the hydrophobic interactions required for aggregation, by which a reduction in inhibition in the presence of Triton X-100 indicates the undesirable inhibitory mode of action whereby, the compound could be potentially inhibiting the enzyme through the indirect sequestration of the protein. […] Given that these three compounds were part of a small series we decided to advance them into the next step of screening.
Orthogonal screening (small molecule aggregation and redox cycling experiments) was carried out as described in our previous work.

[2] = system: HEK293 mts17β-HSD10 cells; test: Lactate dehydrogenase (LDH) cytotoxicity assay; type: cell-based; settings: 24 h
Protocol: Lactate dehydrogenase (LDH) is a colorimetric assay routinely used to quantitatively measure LDH released into the media from damaged cells as a biomarker for cellular cytotoxicity and cytolysis. HEK293 mts17β-HSD10 cells were treated with compound (100 and 25 μM) for 24 h before measurements were taken.
Cell cytotoxicity was assessed via the measurement of lactate dehydrogenase leakage into the culture medium using a commercially available kit from Pierce (Thermo Scientific, UK, cat no. 88953). This was carried out in accordance with the kit guidelines, with the activity of LDH being calculated from the change in absorbance at […] as NADH is reduced. HEK293 cells overexpressing mts17β-HSD10 were cultured in phenol-red free media (10% FBS, 1 mM Sodium Pyruvate, 100 units Penicillin, 0.1 mg/mL Streptomycin and 2 mM L-Glutamine) and seeded at a density of 10,000 cells per well (100 µL, 96-well plates). Cells were then treated with compound of interest at 2 concentrations (25 µM and 100 µM in DMSO) in triplicate. Treated cells were then incubated at 37 °C and CO2 (5%) for 24 hours before the LDH assay was performed as per the manufacturer’s instructions. Spontaneous control (water) and maximum control (lysis buffer) used in accordance with the kit guide. Absorbance was measured at 490 nm and 680 nm using the SpectraMaxM2e spectrophotometer (Molecular Devices, San Jose, CA, USA). The measured LDH activity was used to calculate % cytotoxicity using the following equation: (1) % cytotoxicity=(compound treated LDH Activity−Spontaneous LDH Activity)/(Maximum LDH Activity−Spontaneous LDH Activity)×100

[3] = biological target: T1, 17β-HSD10; test: mechanism of inhibition experiments (Hanes–Woolf kinetics); type: biochemical; design: made in house
Protocol: (§1) Compound screening, dose response and mechanism of inhibition experiments were performed as described in Hroch et al. 2016, with the exceptions being an alteration in assay buffer (10 mM Tris HCl (pH 7.4), 150 mM NaCl, 1 mM DTT, 0.005% Tween20, 0.01% BSA) and a change in temperature to 25 °C, to improve enzyme stability and assay reliability as compound solubility improved, as outlined in our previous work.
Figure [S2]: Hanes-Woolf kinetic plots for compounds 5, 6 and 61. Each compound’s mode of inhibition with respect to both Acetoacetyl CoEnzymeA and NADH determined from Hanes -Woolf calculations. The mean values shown with n=3 ± St Dev.
(1 picture or pasted object on this page, not shown here)

[4] = biological target: T1, 17β-HSD10; test: recombinant 17β-HSD10 enzyme activity assay (primary NADH screen and dose response); type: biochemical; design: made in house; settings: for IC50: recombinant enzyme, dose response, 95% CI; for remaining activity at 25 µM: relative remaining activity, 25 μM compound, six independent measurements ± SEM, read-out: 17β-HSD10 activity in the presence of compound at 25 μM (Primary Screen)
Excerpt: In order to reduce attrition rates and improve assay reproducibility we have developed a high throughput screening (HTS) pipeline (Figure 3 [19]). In brief, compounds are screened in the recombinant 17β-HSD10 enzyme activity assay (Table 5, Figure 4). Our best previously published compounds have set the threshold of 40% remaining 17β-HSD10 activity as a minimum standard and if compounds can better this threshold, they are further screened using our orthogonal counter assays, dose response assays and kinetic assessment (Table 5). Finally, if passing these criteria with favourable characteristics, the compounds progress into cellular evaluation through cytotoxicity testing and measuring 17β-HSD10 activity within cells (Table 6).
Full results for the primary nicotinamide adenine dinucleotide (NADH) assay screens are shown in Figure 4 including our four best previously published compounds for comparison (Figure 1).
Purification of 17β-HSD10 protein was performed as described in our previous work.
as §1

[5] = biological target: T1, 17β-HSD10; test: (−)-CHANA assay, 17β-HSD10 activity within cells; type: cell-based; design: mts (prefix as printed); expressed in transfected cells; host or cells: HEK293; settings: for IC50: HEK293 mts17β-HSD10 cells, 20 µM (−)-CHANA, 95% CI
Protocol: HEK293 mts17β-HSD10 cells were seeded at a density of 10,000 cells per well (100 µL, 96-well black plates, Greiner Cat no. 655090) in phenol-red free media (10% FBS, 1 mM Sodium Pyruvate, 100 units Penicillin, 0.1 mg/mL Streptomycin and 2 mM L-Glutamine). The media was removed from the cells and replaced with fresh media containing varying concentrations of compound (100 µM–0.098 µM). The fluorogenic probe (−)-CHANA was then added to each well to give a final assay concentration of 20 µM. Fluorescence was immediately measured using the FLUOstar Optima microplate reader (excitation = 380 nm, emission = 520 nm, orbital averaging = 3 mm) and the initial reaction monitored for 3–4 hours. EC50 was calculated from the control - subtracted triplicates using non-linear regression (four parameters) of GraphPad Prism 5 software. Final EC50 and SEM value was obtained as a mean of at least 3 independent measurements.

| Orthogonal Counter Screens: Evidence of Aggregation or Redox Cycling [1] | Mechanism of Inhibition with Respect to Both Acetoacetyl-CoA and NADH [3] | IC50 [4] | remaining activity at 25 µM [4] | IC50 [5] | melting point | inhibition at 25 µM [4] | behaviour in (−)-CHANA assay media ([5]; cellular IC50 could not be calculated) | SMILES | LDH Cytotoxicity with 25 μM Compound [2] | LDH Cytotoxicity with 100 μM Compound [2] |
| --- | --- | --- | --- | --- | --- | --- | --- | --- | --- | --- |
| None | Mixed | 1.86 µM | 9.82 ± 2.19% | 17 µM | 241 to 242 °C | – | – | COc1ccc2nc(NC(=O)Nc3ccc(O)c(I)c3)sc2c1 [Compound 6, 1-(4-Hydroxy-3-iodophenyl)-3-(6-methoxybenzo[d]thiazol-2-yl)urea] | 23.54 ± 3.02% | 23.97 ± 3.32% |
| – | – | – | 106 ± 20.9% | – | 171 to 172 °C | – | – | CN(C(=O)Nc1ccc(O)c(Cl)c1)c1nc2ccccc2s1 [Compound 41, 1-(Benzo[d]thiazol-2-yl)-3-(3-chloro-4-hydroxyphenyl)-1-methylurea] | – | – |
| – | – | – | 55.8 ± 1.54% | – | 258 to 260 °C | – | – | O=C(Nc1ccc(O)c(Cl)c1)Nc1nc2c(s1)CCCC2 [Compound 71, 1-(3-Chloro-4-hydroxyphenyl)-3-(4,5,6,7-tetrahydrobenzo[d]thiazol-2-yl)urea] | – | – |
| – | – | – | 102 ± 3.65% | – | 206 to 208 °C | – | – | O=C(Nc1ccc(O)c(Cl)c1)Nc1nc(-c2ccc(Cl)cc2)cs1 [Compound 73, 1-(3-Chloro-4-hydroxyphenyl)-3-(4-(4-chlorophenyl)thiazol-2-yl)urea] | – | – |
| – | – | – | 74.5 ± 0.63% | – | 220 to 222 °C | – | – | O=C(Nc1ccc(O)c(Cl)c1)Nc1nccs1 [Compound 74, 1-(3-Chloro-4-hydroxyphenyl)-3-(thiazol-2-yl)urea] | – | – |
| – | – | – | 43.8 ± 0.77% | – | 224 to 226 °C | – | – | O=C(Nc1ccc(O)c(Cl)c1)Nc1ccc2ncsc2c1 [Compound 76, 1-(Benzo[d]thiazol-6-yl)-3-(3-chloro-4-hydroxyphenyl)urea] | – | – |

Second part, the compound before the results:

| SMILES | Orthogonal Counter Screens: Evidence of Aggregation or Redox Cycling [1] | Mechanism of Inhibition with Respect to Both Acetoacetyl-CoA and NADH [3] | IC50 [4] | remaining activity at 25 µM [4] | IC50 [5] | melting point | inhibition at 25 µM [4] | behaviour in (−)-CHANA assay media ([5]; cellular IC50 could not be calculated) | LDH Cytotoxicity with 25 μM Compound [2] | LDH Cytotoxicity with 100 μM Compound [2] |
| --- | --- | --- | --- | --- | --- | --- | --- | --- | --- | --- |
| COc1ccc2nc(NC(=O)Nc3ccc(O)c(Br)c3)sc2c1 [Compound 5, 1-(3-Bromo-4-hydroxyphenyl)-3-(6-methoxybenzo[d]thiazol-2-yl)urea] | None | Mixed | 1.28 µM | 14.3 ± 1.95% | 10.4 µM | – | – | – | 13.28 ± 0.55% | 20.13 ± 4.26% |
| CN(C(=O)Nc1nc2ccccc2s1)c1ccc(O)c(Cl)c1 [Compound 45, 3-(Benzo[d]thiazol-2-yl)-1-(3-chloro-4-hydroxyphenyl)-1-methylurea] | – | – | – | 77.3 ± 1.43% | – | 139 to 141 °C | – | – | – | – |
| COc1ccc2nc(NC(=O)N(C)c3ccc(O)c(Cl)c3)sc2c1 [Compound 46, 1-(3-Chloro-4-hydroxyphenyl)-3-(6-methoxybenzo[d]thiazol-2-yl)-1-methylurea] | – | – | – | 97.8 ± 1.32% | – | 220 °C (dec.) | – | – | – | – |
| CN(C(=O)N(C)c1nc2ccccc2s1)c1ccc(O)c(Cl)c1 [Compound 49, 1-(Benzo[d]thiazol-2-yl)-3-(3-chloro-4-hydroxyphenyl)-1,3-dimethylurea] | – | – | – | 105 ± 2.21% | – | 227 to 228.5 °C | – | – | – | – |
| CC(C)c1ccc2nc(NC(=O)Nc3ccc(O)c(Cl)c3)sc2c1 [Compound 61, 1-(3-Chloro-4-hydroxyphenyl)-3-(6-isopropylbenzo[d]thiazol-2-yl)urea] | None | Mixed | 5.12 µM | 36.5 ± 0.53% | 7.88 µM | 246 to 248 °C | 77.4% | – | 28.83 ± 0.67% | 55.68 ± 2.55% |
| CC(C)(C)c1ccc2nc(NC(=O)Nc3ccc(O)c(Cl)c3)sc2c1 [Compound 62, 1-(6-(Tert-butyl)benzo[d]thiazol-2-yl)-3-(3-chloro-4-hydroxyphenyl)urea] | None | Mixed | 5.29 µM | 34 ± 2.44% | 3.77 µM | 238 to 240 °C | 78.4% | – | 27.25 ± 3.35% | 64.40 ± 3.62% |
| CCOc1ccc2nc(NC(=O)Nc3ccc(O)c(Cl)c3)sc2c1 [Compound 63, 1-(3-Chloro-4-hydroxyphenyl)-3-(6-ethoxybenzo[d]thiazol-2-yl)urea] | – | Mixed | 1.61 µM | 28.7 ± 0.38% | 2.29 µM | – | – | – | 15.98 ± 1.02% | 18.05± 0.96% |
| CS(=O)(=O)c1ccc2nc(NC(=O)Nc3ccc(O)c(Cl)c3)sc2c1 [Compound 66, 1-(3-Chloro-4-hydroxyphenyl)-3-(6-(methylsulfonyl)benzo[d]thiazol-2-yl)urea] | None | Mixed | 0.93 µM | 21.62 ± 0.21% | – | – | – | precipitating within the assay media | 13.59 ± 0.66% | 17.51± 0.46% |
| O=C(Nc1ccc(O)c(Cl)c1)NC1Cc2ccccc2C1 [Compound 72, 1-(3-Chloro-4-hydroxyphenyl)-3-(2,3-dihydro-1H-inden-2-yl)urea] | – | – | – | 79.2 ± 2.56% | – | 203 to 205 °C | – | – | – | – |
| COc1ccc(CCNC(=O)Nc2ccc(O)c(Cl)c2)cc1 [Compound 75, 1-(3-Chloro-4-hydroxyphenyl)-3-(4-methoxyphenethyl)urea] | – | – | – | 73.3 ± 4.33% | – | 161.5 to 163.5 °C | – | – | – | – |
